From ChEMBL document CHEMBL1201862, “PubChem BioAssay data set” (2004)
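1) Cells in 96-well plates. 2) Compound, 48 h, 5 concentrations. 3) Linear interpolation between surrounding doses. 4) Unreached endpoint = highest concentration. GI50 marks 50% less growth.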 Calls of active or inactive are those of the source. No stated cut-off is given here; in the data, active = GI50 up to about 1.1 µM and inactive = higher.

Key:
Test in all cases: NCI tumour cell line growth inhibition, 48 h
OVCAR-8 = test system: OVCAR-8
MDA-MB-435 = test system: MDA-MB-435
HOP-92 = test system: HOP-92
SK-MEL-28 = test system: SK-MEL-28
U-251 = test system: U-251
MOLT-4 = test system: MOLT-4
SF-268 = test system: SF-268
UACC-257 = test system: UACC-257
OVCAR-4 = test system: OVCAR-4
UO-31 = test system: UO-31
SW-620 = test system: SW-620
MDA-MB-231 = test system: MDA-MB-231
NCI-H226 = test system: NCI-H226
ACHN = test system: ACHN
SNB-19 = test system: SNB-19
UACC-62 = test system: UACC-62
NCI/ADR-RES = test system: NCI/ADR-RES
CAKI-1 = test system: CAKI-1
BT-549 = test system: BT-549
K562 = test system: K562
HCT-15 = test system: HCT-15
A498 = test system: A498
SNB-75 = test system: SNB-75
RPMI-8226 = test system: RPMI-8226
TK-10 = test system: TK-10
MDA-N = test system: MDA-N
HL-60 = test system: HL-60
NCI-H460 = test system: NCI-H460
CCRF-CEM = test system: CCRF-CEM
HCC 2998 = test system: HCC 2998
NCI-H23 = test system: NCI-H23
SN12C = test system: SN12C
KM12 = test system: KM12
SR = test system: SR
OVCAR-3 = test system: OVCAR-3
SF-295 = test system: SF-295
Malme-3M = test system: Malme-3M
NCI-H522 = test system: NCI-H522
A549 = test system: A549
RXF 393 = test system: RXF 393
M14 = test system: M14
DU-145 = test system: DU-145
PC-3 = test system: PC-3
COLO 205 = test system: COLO 205
SF-539 = test system: SF-539
HOP-62 = test system: HOP-62
OVCAR-5 = test system: OVCAR-5
HT-29 = test system: HT-29
HCT-116 = test system: HCT-116
SK-MEL-2 = test system: SK-MEL-2
786-0 = test system: 786-0
EKVX = test system: EKVX
SK-OV-3 = test system: SK-OV-3
MCF7 = test system: MCF7
Hs-578T = test system: Hs-578T
SK-MEL-5 = test system: SK-MEL-5
IGROV-1 = test system: IGROV-1

## CC1(C)/C(=N\O)C2(C#N)CCC1C2 (centres undefined)
OVCAR-8
  GI50: > 100 µM (inactive)
MDA-MB-435
  GI50: > 100 µM (inactive)
HOP-92
  GI50: > 100 µM (inactive)
SK-MEL-28
  GI50: > 100 µM (inactive)
U-251
  GI50: > 100 µM (inactive)
MOLT-4
  GI50: > 100 µM (inactive)
SF-268
  GI50: > 100 µM (inactive)
UACC-257
  GI50: > 100 µM (inactive)
OVCAR-4
  GI50: > 100 µM (inactive)
UO-31
  GI50: > 100 µM (inactive)
SW-620
  GI50: > 100 µM (inactive)
MDA-MB-231
  GI50: > 100 µM (inactive)
NCI-H226
  GI50: > 100 µM (inactive)
ACHN
  GI50: > 100 µM (inactive)
SNB-19
  GI50: > 100 µM (inactive)
UACC-62
  GI50: > 100 µM (inactive)
NCI/ADR-RES
  GI50: > 100 µM (inactive)
CAKI-1
  GI50: > 100 µM (inactive)
BT-549
  GI50: > 100 µM (inactive)
K562
  GI50: > 100 µM (inactive)
HCT-15
  GI50: > 100 µM
A498
  GI50: > 100 µM (inactive)
SNB-75
  GI50: > 100 µM (inactive)
RPMI-8226
  GI50: > 100 µM (inactive)
TK-10
  GI50: > 100 µM (inactive)
MDA-N
  GI50: > 100 µM (inactive)
HL-60
  GI50: > 100 µM (inactive)
NCI-H460
  GI50: > 100 µM (inactive)
CCRF-CEM
  GI50: > 100 µM (inactive)
HCC 2998
  GI50: > 100 µM (inactive)
NCI-H23
  GI50: > 100 µM (inactive)
SN12C
  GI50: > 100 µM (inactive)
KM12
  GI50: > 100 µM (inactive)
SR
  GI50: > 100 µM (inactive)

## CC(=O)Nc1ccc(S(=O)(=O)/N=c2/sc(S(N)(=O)=O)nn2C)cc1
OVCAR-8
  GI50: > 100 µM (inactive)
OVCAR-3
  GI50: > 100 µM (inactive)
MDA-MB-435
  GI50: > 100 µM (inactive)
HOP-92
  GI50: > 100 µM (inactive)
SK-MEL-28
  GI50: > 100 µM (inactive)
SF-295
  GI50: > 100 µM (inactive)
U-251
  GI50: > 100 µM (inactive)
Malme-3M
  GI50: > 100 µM (inactive)
NCI-H522
  GI50: > 100 µM (inactive)
A549
  GI50: > 100 µM (inactive)
MOLT-4
  GI50: > 100 µM (inactive)
SF-268
  GI50: > 100 µM (inactive)
RXF 393
  GI50: > 100 µM (inactive)
OVCAR-4
  GI50: > 100 µM (inactive)
M14
  GI50: > 100 µM (inactive)
DU-145
  GI50: > 100 µM (inactive)
PC-3
  GI50: > 100 µM (inactive)
UO-31
  GI50: > 100 µM (inactive)
SW-620
  GI50: > 100 µM (inactive)
MDA-MB-231
  GI50: > 100 µM (inactive)
COLO 205
  GI50: > 100 µM (inactive)
SF-539
  GI50: > 100 µM (inactive)
NCI-H226
  GI50: > 100 µM (inactive)
ACHN
  GI50: > 100 µM (inactive)
SNB-19
  GI50: > 100 µM (inactive)
HOP-62
  GI50: > 100 µM (inactive)
OVCAR-5
  GI50: > 100 µM (inactive)
HT-29
  GI50: > 100 µM (inactive)
UACC-62
  GI50: > 100 µM (inactive)
HCT-116
  GI50: > 100 µM (inactive)
NCI/ADR-RES
  GI50: > 100 µM (inactive)
SK-MEL-2
  GI50: > 100 µM (inactive)
CAKI-1
  GI50: > 100 µM (inactive)
BT-549
  GI50: > 100 µM (inactive)
786-0
  GI50: > 100 µM (inactive)
HCT-15
  GI50: > 100 µM
A498
  GI50: > 100 µM (inactive)
EKVX
  GI50: > 100 µM (inactive)
SNB-75
  GI50: > 100 µM (inactive)
RPMI-8226
  GI50: > 100 µM (inactive)
TK-10
  GI50: > 100 µM (inactive)
HL-60
  GI50: > 100 µM (inactive)
NCI-H460
  GI50: > 100 µM (inactive)
SK-OV-3
  GI50: > 100 µM (inactive)
HCC 2998
  GI50: > 100 µM (inactive)
NCI-H23
  GI50: > 100 µM (inactive)
KM12
  GI50: > 100 µM (inactive)
SR
  GI50: > 100 µM (inactive)

## CCOC(=O)c1ccc(/N=C2\S/C(=C\C(=S)Nc3ccccc3)N(c3ccccc3)\C2=N/c2ccc(C(=O)OCC)cc2)cc1
OVCAR-8
  GI50: > 100 µM (inactive)
HOP-92
  GI50: 22.8 µM (inactive)
SK-MEL-28
  GI50: 95.5 µM (inactive)
Malme-3M
  GI50: 21.6 µM (inactive)
A549
  GI50: > 100 µM (inactive)
MOLT-4
  GI50: > 100 µM (inactive)
RXF 393
  GI50: 81.5 µM (inactive)
UACC-257
  GI50: 94.2 µM (inactive)
M14
  GI50: 34.6 µM (inactive)
PC-3
  GI50: > 100 µM (inactive)
UO-31
  GI50: > 100 µM (inactive)
SW-620
  GI50: > 100 µM (inactive)
MDA-MB-231
  GI50: > 100 µM (inactive)
COLO 205
  GI50: > 100 µM (inactive)
NCI-H226
  GI50: > 100 µM (inactive)
SNB-19
  GI50: > 100 µM (inactive)
HOP-62
  GI50: > 100 µM (inactive)
HT-29
  GI50: > 100 µM (inactive)
UACC-62
  GI50: > 100 µM (inactive)
HCT-116
  GI50: 27.2 µM (inactive)
SK-MEL-2
  GI50: > 100 µM (inactive)
BT-549
  GI50: 62.7 µM (inactive)
MCF7
  GI50: > 100 µM (inactive)
K562
  GI50: > 100 µM (inactive)
786-0
  GI50: 82 µM (inactive)
HCT-15
  GI50: > 100 µM
Hs-578T
  GI50: 62.4 µM (inactive)
SK-MEL-5
  GI50: 40.7 µM (inactive)
EKVX
  GI50: > 100 µM (inactive)
SNB-75
  GI50: 34.5 µM (inactive)
RPMI-8226
  GI50: > 100 µM (inactive)
TK-10
  GI50: > 100 µM (inactive)
HL-60
  GI50: > 100 µM (inactive)
CCRF-CEM
  GI50: > 100 µM (inactive)
HCC 2998
  GI50: > 100 µM (inactive)
NCI-H23
  GI50: > 100 µM (inactive)
SN12C
  GI50: > 100 µM (inactive)
KM12
  GI50: > 100 µM (inactive)
IGROV-1
  GI50: > 100 µM (inactive)
SR
  GI50: > 100 µM (inactive)

## Cc1cc(NS(=O)(=O)c2ccc(/N=N/c3c(O)c(C(=O)O)cc4ccccc34)cc2)nc(C)n1
OVCAR-8
  GI50: > 100 µM (inactive)
OVCAR-3
  GI50: > 100 µM (inactive)
MDA-MB-435
  GI50: > 100 µM (inactive)
HOP-92
  GI50: > 100 µM (inactive)
SK-MEL-28
  GI50: > 100 µM (inactive)
SF-295
  GI50: > 100 µM (inactive)
U-251
  GI50: > 100 µM (inactive)
Malme-3M
  GI50: > 100 µM (inactive)
NCI-H522
  GI50: > 100 µM (inactive)
A549
  GI50: > 100 µM (inactive)
MOLT-4
  GI50: > 100 µM (inactive)
SF-268
  GI50: > 100 µM (inactive)
RXF 393
  GI50: > 100 µM (inactive)
UACC-257
  GI50: > 100 µM (inactive)
OVCAR-4
  GI50: > 100 µM (inactive)
M14
  GI50: > 100 µM (inactive)
PC-3
  GI50: > 100 µM (inactive)
UO-31
  GI50: > 100 µM (inactive)
SW-620
  GI50: > 100 µM (inactive)
MDA-MB-231
  GI50: > 100 µM (inactive)
COLO 205
  GI50: > 100 µM (inactive)
SF-539
  GI50: > 100 µM (inactive)
NCI-H226
  GI50: > 100 µM (inactive)
ACHN
  GI50: > 100 µM (inactive)
SNB-19
  GI50: > 100 µM (inactive)
HOP-62
  GI50: > 100 µM (inactive)
OVCAR-5
  GI50: > 100 µM (inactive)
HT-29
  GI50: > 100 µM (inactive)
UACC-62
  GI50: > 100 µM (inactive)
HCT-116
  GI50: > 100 µM (inactive)
NCI/ADR-RES
  GI50: > 100 µM (inactive)
SK-MEL-2
  GI50: > 100 µM (inactive)
CAKI-1
  GI50: > 100 µM (inactive)
BT-549
  GI50: > 100 µM (inactive)
MCF7
  GI50: > 100 µM (inactive)
K562
  GI50: > 100 µM (inactive)
786-0
  GI50: > 100 µM (inactive)
HCT-15
  GI50: > 100 µM
Hs-578T
  GI50: > 100 µM (inactive)
SK-MEL-5
  GI50: > 100 µM (inactive)
EKVX
  GI50: > 100 µM (inactive)
SNB-75
  GI50: > 100 µM (inactive)
RPMI-8226
  GI50: > 100 µM (inactive)
TK-10
  GI50: > 100 µM (inactive)
HL-60
  GI50: > 100 µM (inactive)
NCI-H460
  GI50: > 100 µM (inactive)
CCRF-CEM
  GI50: > 100 µM (inactive)
SK-OV-3
  GI50: > 100 µM (inactive)
HCC 2998
  GI50: > 100 µM (inactive)
KM12
  GI50: > 100 µM (inactive)
IGROV-1
  GI50: > 100 µM (inactive)
SR
  GI50: > 100 µM (inactive)
